Laboratory results from PubChem BioAssay (NCI).
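Values below derive from 48-hour exposures of cells grown in 96-well plates, with endpoints linearly interpolated between the two concentrations bracketing the appropriate inhibition level. TGI denotes the concentration required for complete inhibition of growth.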

Experiments:
Assay in all cases: inhibition of tumour cell growth, NCI panel, 48 h
[1] = tested on: OVCAR-5 ovarian
[2] = tested on: NCI-H23 lung
[3] = tested on: UO-31 renal
[4] = tested on: U251 CNS
[5] = tested on: MDA-MB-435
[6] = tested on: SR leukemia
[7] = tested on: BT-549 breast
[8] = tested on: ACHN renal
[9] = tested on: SNB-19 CNS
[10] = tested on: RXF 393 renal
[11] = tested on: SK-MEL-2 melanoma
[12] = tested on: 786-0 renal
[13] = tested on: A498 renal
[14] = tested on: IGROV1 ovarian
[15] = tested on: M14 melanoma
[16] = tested on: SF-295 CNS
[17] = tested on: CAKI-1 renal
[18] = tested on: COLO 205 colon
[19] = tested on: UACC-62 melanoma
[20] = tested on: HOP-62 NSCLC
[21] = tested on: K-562 leukemia
[22] = tested on: MDA-N
[23] = tested on: MALME-3M melanoma
[24] = tested on: HL-60(TB) leukemia
[25] = tested on: HCC-2998 colon
[26] = tested on: EKVX NSCLC
[27] = tested on: HS 578T breast
[28] = tested on: DU-145 prostate
[29] = tested on: MCF7 breast
[30] = tested on: SK-OV-3 ovarian
[31] = tested on: NCI-H522 lung
[32] = tested on: CCRF-CEM leukemia
[33] = tested on: T-47D breast
[34] = tested on: A549 NSCLC
[35] = tested on: NCI-H460 lung
[36] = tested on: SK-MEL-28 melanoma
[37] = tested on: HCT-15 colon
[38] = tested on: OVCAR-4 ovarian
[39] = tested on: SW-620 colon
[40] = tested on: SF-539 CNS
[41] = tested on: TK-10 renal
[42] = tested on: SN12C renal
[43] = tested on: HT29 colon
[44] = tested on: PC-3 prostate
[45] = tested on: RPMI-8226 leukemia
[46] = tested on: OVCAR-3 ovarian
[47] = tested on: MDA-MB-231 breast
[48] = tested on: SNB-75 CNS
[49] = tested on: SF-268 CNS
[50] = tested on: SK-MEL-5 melanoma
[51] = tested on: NCI/ADR-RES ovarian
[52] = tested on: HCT-116 colon
[53] = tested on: HOP-92 NSCLC
[54] = tested on: OVCAR-8 ovarian
[55] = tested on: LOX IMVI melanoma
[56] = tested on: NCI-H226 lung
[57] = tested on: MOLT-4 leukemia
[58] = tested on: UACC-257 melanoma
[59] = tested on: KM12 colon

Question: For `Cc1cccc(NC(=O)O/N=C(\Cl)C(C)C)c1`, which TGI [1] is on record?
Answer: 35.8 µM

Question: What about the TGI [2] of the same compound?
Answer: 29.1 µM

Question: And the TGI [3]?
Answer: 30.3 µM

Question: And the TGI [4]?
Answer: 43.2 µM

Question: What about the TGI [5] of the same compound?
Answer: 31.7 µM

Question: And the TGI [6]?
Answer: 4.4 µM

Question: What about the TGI [7] of the same compound?
Answer: 12.2 µM

Question: And the TGI [8]?
Answer: 3.94 µM

Question: What about the TGI [9] of the same compound?
Answer: 38.9 µM

Question: And the TGI [10]?
Answer: 26.9 µM

Question: What about the TGI [11] of the same compound?
Answer: 32.6 µM

Question: And the TGI [12]?
Answer: 4.12 µM

Question: And the TGI [13]?
Answer: 34.4 µM

Question: And the TGI [14]?
Answer: 33.8 µM

Question: What about the TGI [15] of the same compound?
Answer: 16.4 µM

Question: What about the TGI [16] of the same compound?
Answer: 32.1 µM

Question: What about the TGI [17] of the same compound?
Answer: 3.17 µM

Question: What about the TGI [18] of the same compound?
Answer: 3.76 µM

Question: And the TGI [19]?
Answer: 29.6 µM

Question: What about the TGI [20] of the same compound?
Answer: 34.5 µM

Question: And the TGI [21]?
Answer: > 100 µM

Question: And the TGI [22]?
Answer: 25 µM

Question: And the TGI [23]?
Answer: 5.29 µM

Question: What about the TGI [24] of the same compound?
Answer: 4.27 µM

Question: What about the TGI [25] of the same compound?
Answer: 33.8 µM

Question: And the TGI [26]?
Answer: 11.1 µM

Question: What about the TGI [27] of the same compound?
Answer: 63.7 µM

Question: What about the TGI [28] of the same compound?
Answer: 33 µM

Question: And the TGI [29]?
Answer: 28 µM

Question: And the TGI [30]?
Answer: 31.7 µM

Question: And the TGI [31]?
Answer: 2.99 µM

Question: And the TGI [32]?
Answer: 3.9 µM

Question: And the TGI [33]?
Answer: 15.6 µM

Question: And the TGI [34]?
Answer: 40.9 µM

Question: What about the TGI [35] of the same compound?
Answer: 33.2 µM

Question: What about the TGI [36] of the same compound?
Answer: 26.7 µM

Question: What about the TGI [37] of the same compound?
Answer: 4.98 µM

Question: And the TGI [38]?
Answer: 29.4 µM

Question: And the TGI [39]?
Answer: 3.6 µM

Question: What about the TGI [40] of the same compound?
Answer: 20.3 µM

Question: What about the TGI [41] of the same compound?
Answer: 27.3 µM

Question: And the TGI [42]?
Answer: 10.3 µM

Question: What about the TGI [43] of the same compound?
Answer: 27.2 µM

Question: And the TGI [44]?
Answer: 30.9 µM

Question: And the TGI [45]?
Answer: 10.5 µM

Question: And the TGI [46]?
Answer: 11.4 µM

Question: And the TGI [47]?
Answer: 33.4 µM

Question: And the TGI [48]?
Answer: 33.1 µM

Question: What about the TGI [49] of the same compound?
Answer: 38 µM

Question: And the TGI [50]?
Answer: 32.9 µM

Question: And the TGI [51]?
Answer: 38.4 µM

Question: What about the TGI [52] of the same compound?
Answer: 11.4 µM

Question: What about the TGI [53] of the same compound?
Answer: 3.14 µM

Question: And the TGI [54]?
Answer: 34.2 µM

Question: And the TGI [55]?
Answer: 3.67 µM

Question: What about the TGI [56] of the same compound?
Answer: 33.5 µM

Question: And the TGI [57]?
Answer: 5.63 µM

Question: What about the TGI [58] of the same compound?
Answer: 31.5 µM

Question: What about the TGI [59] of the same compound?
Answer: 36 µM
